From the NIST ThermoML archive (doi:10.1016/j.jct.2016.03.026)

Assay: xn = mol fraction of the nth substance listed
Details: 304.21 K, Fluid (supercritical or subcritical phases), Vibrating tube method, x1 = 0.97

O=C=O [carbon dioxide] + CO
Details	mass density [kg/m3]
10625 kPa	791.47
10650 kPa	791.91
10675 kPa	792.32
10700 kPa	792.79
10725 kPa	793.26
10750 kPa	793.67
10775 kPa	794.08
10800 kPa	794.49
10825 kPa	794.91
10850 kPa	795.38
10875 kPa	795.84
10900 kPa	796.21
10925 kPa	796.66
10950 kPa	797.06
10975 kPa	797.53
11000 kPa	797.93
11025 kPa	798.32
11050 kPa	798.73
11075 kPa	799.17
11100 kPa	799.63
11125 kPa	799.99
11150 kPa	800.45
11175 kPa	800.8
11200 kPa	801.23
11225 kPa	801.64
11250 kPa	802.05
11275 kPa	802.5
11300 kPa	802.86
11325 kPa	803.31
11350 kPa	803.73
11375 kPa	804.09
11400 kPa	804.56
11425 kPa	804.93
11450 kPa	805.27
11475 kPa	805.69
11500 kPa	806.12
11525 kPa	806.52
11550 kPa	806.91
11575 kPa	807.3
11600 kPa	807.66
11625 kPa	808.01
11650 kPa	808.41
11675 kPa	808.81
11700 kPa	809.25
11725 kPa	809.62
11750 kPa	810
11775 kPa	810.37
11800 kPa	810.74
11825 kPa	811.11
11850 kPa	811.47
11875 kPa	811.83
11900 kPa	812.25
11925 kPa	812.53
11950 kPa	812.98
11975 kPa	813.33
12000 kPa	813.7
12025 kPa	814.08
12050 kPa	814.43
12075 kPa	814.76
12100 kPa	815.17
12125 kPa	815.5
12150 kPa	815.82
12175 kPa	816.22
12200 kPa	816.54
12225 kPa	816.89
12250 kPa	817.23
12275 kPa	817.54
12300 kPa	817.94
12325 kPa	818.27
12350 kPa	818.61
12375 kPa	818.95
12400 kPa	819.29
12425 kPa	819.62
12450 kPa	819.95
12475 kPa	820.29
12500 kPa	820.61
12525 kPa	820.93
12550 kPa	821.24
12575 kPa	821.61
12600 kPa	821.94
12625 kPa	822.23
12650 kPa	822.53
12675 kPa	822.85
12700 kPa	823.18
12725 kPa	823.45
12750 kPa	823.79
12775 kPa	824.13
12800 kPa	824.43
12825 kPa	824.72
12850 kPa	825.02
12875 kPa	825.36
12900 kPa	825.66
12925 kPa	825.97
12950 kPa	826.28
12975 kPa	826.52
13000 kPa	826.85
13025 kPa	827.19
13050 kPa	827.45
13075 kPa	827.74
13100 kPa	828.02
13125 kPa	828.34
13150 kPa	828.59
13175 kPa	828.91
13200 kPa	829.21
13225 kPa	829.5
13250 kPa	829.81
13275 kPa	830.06
13300 kPa	830.33
13325 kPa	830.63
13350 kPa	830.91
13375 kPa	831.19
13400 kPa	831.47
13425 kPa	831.75
13450 kPa	832.03
13475 kPa	832.3
13500 kPa	832.56
13525 kPa	832.83
13550 kPa	833.09
13575 kPa	833.35
13600 kPa	833.6
13625 kPa	833.85
13650 kPa	834.12
13675 kPa	834.42
13700 kPa	834.66
13725 kPa	834.9
13750 kPa	835.2
13775 kPa	835.42
13800 kPa	835.64
13825 kPa	835.86
13850 kPa	836.06
13875 kPa	836.22
13900 kPa	836.51
13925 kPa	836.81
13950 kPa	837.08
13975 kPa	837.35
14000 kPa	837.64
14025 kPa	837.92
14050 kPa	838.19
14075 kPa	838.5
14100 kPa	838.78
14125 kPa	839.03
14150 kPa	839.31
14175 kPa	839.62
14200 kPa	839.87
14225 kPa	840.12
14250 kPa	840.43
14275 kPa	840.68
14300 kPa	840.92
14325 kPa	841.24
14350 kPa	841.49
14375 kPa	841.72
14400 kPa	842.04
14425 kPa	842.27
14450 kPa	842.52
14475 kPa	842.78
14500 kPa	843.08
14525 kPa	843.34
14550 kPa	843.58
14575 kPa	843.9
14600 kPa	844.14
14625 kPa	844.38
14650 kPa	844.61
14675 kPa	844.86
14700 kPa	845.17
14725 kPa	845.44
14750 kPa	845.72
14775 kPa	845.96
14800 kPa	846.19
14825 kPa	846.5
14850 kPa	846.73
14875 kPa	846.98
14900 kPa	847.24
14925 kPa	847.52
14950 kPa	847.71
14975 kPa	848
15000 kPa	848.29
15025 kPa	848.51
15050 kPa	848.76
15075 kPa	849.02
15100 kPa	849.3
15125 kPa	849.56
15150 kPa	849.76
15175 kPa	850.04
15200 kPa	850.3
15225 kPa	850.56
15250 kPa	850.76
15275 kPa	851.04
15300 kPa	851.23
15325 kPa	851.51
15350 kPa	851.79
15375 kPa	851.98
15400 kPa	852.22
15425 kPa	852.43
15450 kPa	852.7
15475 kPa	852.92
15500 kPa	853.2
15525 kPa	853.4
15550 kPa	853.64
15575 kPa	853.89
15600 kPa	854.15
15625 kPa	854.39
15650 kPa	854.57
15675 kPa	854.81
15700 kPa	855.06
15725 kPa	855.3
15750 kPa	855.49
15775 kPa	855.71
15800 kPa	855.96
15825 kPa	856.2
15850 kPa	856.41
15875 kPa	856.68
15900 kPa	856.93
15925 kPa	857.08
15950 kPa	857.32
15975 kPa	857.56
16000 kPa	857.77
16025 kPa	857.95
16050 kPa	858.19
16075 kPa	858.44
16100 kPa	858.66
16125 kPa	858.84
16150 kPa	859.07
16175 kPa	859.32
16200 kPa	859.52
16225 kPa	859.74
16250 kPa	859.97
16275 kPa	860.2
16300 kPa	860.35
16325 kPa	860.63
16350 kPa	860.83
16375 kPa	861.01
16400 kPa	861.22
16425 kPa	861.43
16450 kPa	861.65
16475 kPa	861.85
16500 kPa	862.01
16525 kPa	862.21
16550 kPa	862.42
16575 kPa	862.62
16600 kPa	862.9
16625 kPa	863.08
16650 kPa	863.26
16675 kPa	863.56
